Results: publication PMC9502271, “An Investigation of the Anti-Depressive Properties of Phenylpropanoids and Flavonoids in Hemerocallis citrina Baroni” (Molecules, 2022)
Like-named read-outs stand apart in the source and are kept apart here.

Legend:
CUMS rats [1] = experiment: Sucrose preference test (SPT) in CUMS rats; type: in vivo, Male Sprague-Dawley (SD) rats; conditions: after five weeks of administration by gastric gavage, HFPE, HFFE 25 mg/kg, fluoxetine 10 mg/kg, model group 64.44%
Procedure: (§1) The Animal Ethics Committee of Shenyang Pharmaceutical University has approved all animal testing (no. SYPU-IACUC-S2021-03-03-202). Male Sprague-Dawley (SD) rats weighing 180–200 g were supplied by Central Animal House of Shenyang Pharmaceutical University (Shenyang, China). […] They were also provided water and a regular food. Before the actual trials start, the rats should acclimate to their new environment for seven days.
(§2) A baseline test was conducted as described below before grouping. Rats were divided into five groups of 10 depending on their weight and sucrose preference. The model group, fluoxetine (10 mg/kg) group, HFPE (25 mg/kg) group, and HFFE (25 mg/kg) group were the four treatment groups using CUMS procedures. An untouchable control group was used. Based on what had been reported in the pharmacological literature the HFPE and HFFE dosages were selected. Two hours before to the daily CUMS procedure and behavioral testing, the rats received the appropriate solutions. […]
(§3) Body weights were recorded every week. […]
The SPT is used to evaluate rodent behavior associated with a human clinical symptom of depression by evaluating the capacity to seek pleasure. […] After that, the amount of liquids consumed was recorded. […]

CUMS rats [2] = experiment: Open-field test (OFT) in CUMS rats; type: in vivo, Male Sprague-Dawley (SD) rats; conditions: 5 min test, HFPE, HFFE 25 mg/kg, fluoxetine 10 mg/kg, compared with model group
Procedure: as §1, §2, §3
To assess the effects of HFPE and HFFE on exploratory behavior of rats administered CUMS, OFT carried out in the same manner as literature. Each rat was placed in its own square in the center of a black box that measured 100 cm × 100 cm × 40 cm. […] Both the crossing score and the rearing score for each animal were recorded. […]

CUMS rats [3] = experiment: Forced swimming test (FST) in CUMS rats; type: in vivo, Male Sprague-Dawley (SD) rats; conditions: HFPE, HFFE 25 mg/kg, fluoxetine 10 mg/kg, compared with CUMS model group
Procedure: as §1
as §2, with “solutions. All of the medications were administered through gastric gavage at a volume of 3 mL/kg of body weight and dissolved in sodium carboxymethylcellulose (CMC-Na) at a concentration of 0.3%.” for “solutions.”
as §3
The FST protocol was carried out as described in previous literature. […] The time the rat’s immobility duration in the last five minutes of their six-minute swim in the bucket was recorded. […]

[4] = Body weight growth rate of CUMS rats; type: in vivo, Male Sprague-Dawley (SD) rats; conditions: 5 weeks, HFPE, HFFE 25 mg/kg, fluoxetine 10 mg/kg, gastric gavage
Procedure: as §1
as §2, with “solutions. All of the medications were administered through gastric gavage at a volume of 3 mL/kg of body weight and dissolved in sodium carboxymethylcellulose (CMC-Na) at a concentration of 0.3%. Days 76–79, 80, and 81 after the final dosage of the medication, respectively, saw the completion of the SPT, OFT, and FST.” for “solutions.”
as §3

IL-6 = IL-6 level in hippocampus of CUMS rats, ELISA; type: in vivo, Male Sprague-Dawley (SD) rats; conditions: after 5 weeks of therapy, HFPE, HFFE 25 mg/kg, fluoxetine 10 mg/kg
Procedure: as §1, §2
(§4) The serum and hippocampal tissue of rats were taken. […] The optical density value was calculated after the reaction by setting the microtiter plate at 450 nm. The amount of CORT in the serum and the amounts of IL-6, IL-1β, and TNF-α in the hippocampus tissue were calculated using the standard curve.

IL-1β = IL-1β level in hippocampus of CUMS rats, ELISA; type: in vivo, Male Sprague-Dawley (SD) rats; conditions: after 5 weeks of therapy, HFPE, HFFE 25 mg/kg, fluoxetine 10 mg/kg
Procedure: as §1, §2, §4

TNF-α = TNF-α level in hippocampus of CUMS rats, ELISA; type: in vivo, Male Sprague-Dawley (SD) rats; conditions: after 5 weeks of therapy, HFPE, HFFE 25 mg/kg, fluoxetine 10 mg/kg
Procedure: as §1, §2, §4

[5] = test system: NO production induced by LPS in BV2 cells; experiment: Inhibition of NO production in LPS-induced BV2 microglial cells (Griess reagent); type: cell-based; conditions: compound test concentrations 3.125 to 100 μM, mean ± SD (n = 3), read-out: IC50 NO Inhibitory
Procedure: (§5) BV2 microglia cells were purchased from iCell Bioscience Inc. (Shanghai, China). The cells were grown at 37 °C in a humid environment with 5% CO2. In DMEM with 10% fetal bovine serum and 1% penicillin-streptomycin solution, they were maintained alive. The following assays were carried out while the cells were in the exponential growth phase (subcultured 2–3 times).
To determine how much NO is produced, the literature was consulted. Equal parts of the Griess reagent (1% sulfanilamide and 0.1% N-(1-naphthyl) ethylenediamine dihydrochloride in 2.5% phosphoric acid) were combined with the sample-treated cell culture medium for 5 min at room temperature and in the dark. It was determined that the absorbance was at 540 nm using a microplate reader. The trials were conducted simultaneously in triplicate.

BV2 microglial cells = experiment: CCK8 cytotoxic activity in BV2 microglial cells; type: cell-based; conditions: Mus musculus, BV-2, CCK8, LPS 1 μg/mL 24 h, compound test concentrations 3.125 to 100 μM, read-out: IC50 Cell Viability
Procedure: as §5
The cytotoxic activity was assessed using the CCK8 test. In a 96-well plate, BV2 microglial cells (5 × 10^4 cells/well) were placed in each well and incubated for 12 h. After one hour with each substance, LPS (1 μg/mL) was applied to the BV2 microglia cells for an additional 24 h. The CCK8 solution was then incubated with BV2 cells for 1 h at 37 °C. The absorbance at 450 nm was measured using a plate reader (Molecular Devices, San Jose, CA, USA). The cells that had not been treated were assumed to have a 100% optical density.

[6] = Mus musculus, BV-2, LPS-induced BV2 cells

Row | Structure (SMILES) | sucrose preference (CUMS rats [1]) [%] | OFT rearing score (exploratory activity) (CUMS rats [2]) | FST immobility time (CUMS rats [3]) | growth rate of body weight [4] | IL-6 level in hippocampus (IL-6) | IL-1β level in hippocampus (IL-1β) | TNF-α level in hippocampus (TNF-α) | IC50 ([5]; LPS-induced BV2 cells) [µM] | IC50 [5, 6] [µM] | IC50 (BV2 microglial cells) [µM]
1 | CNCCC(Oc1ccc(C(F)(F)F)cc1)c1ccccc1 (centres unmarked) [fluoxetine] | 82.40 | improved the rearing score | reduced immobility | alleviate the reduction in body weight | obviously reduced | obviously reduced | obviously reduced | – | – | –
2 | O=C(/C=C\c1ccc(O)cc1)O[C@H]1C[C@](O)(C(=O)O)C[C@H](O)[C@H]1O [Compound 4, 3-O-(Z)-p-coumaroylquinic acid] | – | – | – | – | – | – | – | 70.4 ± 5.86 | < 100 | > 100
3 | O=C(/C=C\c1ccc(O)cc1)O[C@H]1[C@@H](O)C[C@](O)(C(=O)O)C[C@@H]1O [Compound 10, 4-O-(Z)-p-coumaroylquinic acid] | – | – | – | – | – | – | – | – | > 100 | > 100
4 | C[C@@H]1O[C@@H](OC[C@H]2O[C@@H](Oc3c(-c4ccc(O)cc4)oc4cc(O)cc(O)c4c3=O)[C@H](O[C@@H]3O[C@@H](C)[C@H](O)[C@@H](O)[C@H]3O)[C@@H](O)[C@H]2O)[C@H](O)[C@H](O)[C@H]1O [Compound 36, kaempferol-3-O-[α-L-rhamnopyranosyl-(1→6)]-[α-L-rhamnopyranosyl-(1→2)]-β-D-galactopyranoside] | – | – | – | – | – | – | – | – | > 100 | > 100
